Here are results for 28 compounds from PubChem BioAssay (NCI).

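96-well plates; 48 h exposure; 5 concentrations. Endpoints by linear interpolation between flanking doses. Not reached: highest tested concentration assigned. GI50: concentration for 50% inhibition of growth. TGI: concentration producing complete growth inhibition.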 Some results are limits rather than exact numbers.

Test systems include NCI/ADR-RES ovarian; MCF7 breast; MDA-N; M19-MEL melanoma; KM20L2 colon; LXFL 529 NSCLC; XF 498 CNS; SNB-78 CNS.
Holding throughout (assay): inhibition of tumour cell growth, NCI panel, 48 h

As for `COC1=CC(=O)C(OC)=C(OC)C1=O`, in the test on NCI/ADR-RES ovarian, the GI50 was 17.5 µM and the TGI was found to be 36.6 µM. Also, in the test with MCF7 breast, the GI50 is 21.5 µM and the TGI amounted to 53.1 µM.

In the case of `CC(=O)O[C@@H]1[C@@H](O)C2=C3[C@]4(C)[C@@H]1C(C)(C)C(=O)C[C@@H]4[C@]3(O)[C@H](OC(C)=O)[C@@]1(C[C@@H]1C)C2=O`, the TGI in the test with NCI/ADR-RES ovarian was 62.5 µM; with MCF7 breast, 47.4 µM.

For the compound `CCN(CC)c1ccc2c(c1)Oc1nc(N)c(C#N)c(N)c1C2Sc1ccc(OC)cc1` (stereo not drawn), in the test on NCI/ADR-RES ovarian, the GI50 was 2.81 µM and the TGI was 8.86 µM.

As for `CCN1C2=NCCN2S(=O)(=O)c2ccccc21`, the TGI with NCI/ADR-RES ovarian, in the test on MCF7 breast and with MDA-N was over 100 µM each time.

For `COC(=O)NC1(NC(=O)OC)NC(=O)c2cc(OC)c(OC)c(OC)c2N1`, the values for the TGI in the test with NCI/ADR-RES ovarian, in the test on MCF7 breast and with MDA-N were 56.6 µM, over 100 µM and 16.9 µM, respectively.

Consider `CC(=O)[O-].[Mn+3].[O-]c1ccccc1C=NCCN=Cc1ccccc1[O-]`, for which the GI50 with M19-MEL melanoma is 44.2 µM; in the test with KM20L2 colon, 56.2 µM; with LXFL 529 NSCLC it was 50.7 µM. The TGI in the test on M19-MEL melanoma, with KM20L2 colon and in the test with LXFL 529 NSCLC was over 100 µM throughout.

Consider `O=C(O)CCC/C=C\C[C@H]1C=CC(=O)/C1=C/C[C@@H](O)CCc1cccc(C(F)(F)F)c1`, for which, in the test on NCI/ADR-RES ovarian, the GI50 was 3.15 µM and the TGI stood at 29.3 µM. For the same compound, in the test with MCF7 breast, the GI50 is 0.444 µM and the TGI came to 12.4 µM.

On to `O=C(/C=N/O)Nc1cc(Cl)c(Cl)cc1Cl`, for which the TGI in the test with NCI/ADR-RES ovarian, in the test with MCF7 breast and in the test on MDA-N was over 100 µM in each case.

For `O=C(O)c1cc2ccccc2oc1=O`, the TGI in the test with NCI/ADR-RES ovarian, in the test with MCF7 breast and with MDA-N was over 100 µM in each case.

For `CS(=O)(=O)CCNCc1ccc(-c2ccc3ncnc(Nc4ccc(OCc5cccc(F)c5)c(C(F)(F)F)c4)c3c2)o1`, in the test with NCI/ADR-RES ovarian, the GI50 was 5.54 µM and the TGI stood at 20.7 µM. For the same compound, in the test with MCF7 breast, the GI50 is 3.84 µM and the TGI worked out at 7.74 µM.

As for `COc1ccc(/C=C2\CC(C)CC3C2=NN(C(C)=O)C3c2ccc(OC)cc2)cc1` (stereo not drawn), the GI50 with NCI/ADR-RES ovarian was 21.3 µM; in the test with MCF7 breast, 20 µM. Also, the values for the TGI in the test with NCI/ADR-RES ovarian and with MCF7 breast were 73.2 µM and 63.3 µM, respectively.

In the case of `CC(=O)OC1CC2Oc3ccc(C)cc3C(C)(O2)C1=O` (stereo not drawn), the TGI in the test with M19-MEL melanoma and in the test with XF 498 CNS was over 100 µM in each case.

As for `O=[N+]([O-])/C=C/c1cc2ccccc2[nH]1`, the TGI was determined as 98.2 µM with NCI/ADR-RES ovarian, 13.1 µM in the test on MCF7 breast and 12.1 µM with MDA-N.

Regarding `CN1CCN(c2ccc(Nc3nc(N)c(C(=O)c4ccc5c(c4)OCCO5)s3)cc2)CC1`, in the test on NCI/ADR-RES ovarian, the GI50 was 7.54 µM and the TGI is over 25 µM. Also, in the test with MCF7 breast, the GI50 was 2.85 µM and the TGI came out at 7.73 µM.

On to `Cc1ccc(C(=O)Nc2ccc(S(=O)(=O)O)c3cc(S(=O)(=O)O)cc(S(=O)(=O)O)c23)cc1NC(=S)Nc1cc(C(=O)Nc2ccc(S(=O)(=O)O)c3cc(S(=O)(=O)O)cc(S(=O)(=O)O)c23)ccc1C`, for which the TGI in the test with MCF7 breast and in the test on MDA-N was over 75 µM each time.

With `O=C(Nc1cccc(Cc2cccc(NC(=O)c3ccccc3)c2)c1)c1ccccc1`, the TGI with M19-MEL melanoma, in the test with KM20L2 colon and with LXFL 529 NSCLC was over 100 µM each time.

As to `CC(C)CC(=O)Nc1n[nH]c2c1CN(C(=O)C1CCN(C)CC1)C2(C)C`, the GI50 in the test with NCI/ADR-RES ovarian is over 10 µM; in the test with MCF7 breast it was 0.191 µM. Besides, the TGI in the test with NCI/ADR-RES ovarian and in the test on MCF7 breast was over 10 µM in each case.

On to `OC(COc1ccc(F)cc1)Cn1cnc2c(Cl)ncnc21` (stereo not drawn), for which, in the test with NCI/ADR-RES ovarian, the GI50 was over 100 µM and the TGI was over 100 µM. For the same compound, in the test on MCF7 breast, the GI50 is over 100 µM and the TGI is over 100 µM.

In the case of `Nc1nc2cc3ccc(C4CC(O)C(CO)O4)cc3cc2c(=O)[nH]1` (stereo not drawn), in the test with NCI/ADR-RES ovarian, the GI50 was over 100 µM and the TGI was over 100 µM. In the test on MCF7 breast, the GI50 was over 100 µM and the TGI was over 100 µM.

As for `Cc1[nH]c2ccccc2c1-c1cc(-c2cc(-c3c(C)[nH]c4ccccc34)nc(N)n2)nc(N)n1`, the TGI in the test with NCI/ADR-RES ovarian, in the test with MCF7 breast and in the test with MDA-N was over 100 µM throughout.

As to `COc1cc2c3c(n(CCCNCCCNCCCNCCCN)c(=O)c2cc1OC)-c1cc2c(cc1C3=O)OCO2`, in the test with NCI/ADR-RES ovarian, the GI50 was 1.83 µM and the TGI was determined as 3.22 µM. Moreover, in the test with MCF7 breast, the GI50 is 0.712 µM and the TGI amounted to 2.47 µM.

Regarding `CS(=O)(=O)Nc1cccc(-c2cc(-c3ccccc3Cl)c(C#N)c(N)n2)c1`, in the test with NCI/ADR-RES ovarian, the GI50 is 0.552 µM and the TGI is over 22.2 µM. Further, in the test on MCF7 breast, the GI50 is 0.478 µM and the TGI was 14.3 µM.

For `COC(=O)Nc1nc2ccc(C(=O)c3ccc(N(C)C4COC4)cc3)cc2[nH]1`, the GI50 in the test on NCI/ADR-RES ovarian was 0.362 µM; in the test with MCF7 breast, 0.346 µM. Moreover, the TGI in the test on NCI/ADR-RES ovarian and with MCF7 breast was over 100 µM throughout.

For the compound `C[C@@H]1Cc2c([nH]c3ccccc23)[C@@H](c2c(F)cc(NC3CN(CCCF)C3)cc2F)N1CC(F)(F)CO`, in the test on NCI/ADR-RES ovarian, the GI50 is 4.1 µM and the TGI was 16.6 µM. This compound also displayed a TGI in the test with MCF7 breast of 4.27 µM.

For the compound `O=C(Nc1ccccc1O)c1ccc(CNc2ccnc(C(F)(F)F)c2)cc1`, in the test on NCI/ADR-RES ovarian, the GI50 was 2.41 µM and the TGI was found to be 54.4 µM. Further, in the test on MCF7 breast, the GI50 is 4.43 µM and the TGI is over 100 µM.

For `CCn1cc(-c2ccnc3[nH]ccc23)c(-c2cccc(NC(=O)Nc3ccc(OCc4ccccc4)cc3)c2)n1`, in the test on NCI/ADR-RES ovarian, the GI50 is over 25 µM and the TGI is over 25 µM. Further, in the test on MCF7 breast, the GI50 is 8.15 µM and the TGI is over 25 µM.

Regarding `CN(C)c1ncc(-c2ccc(C(F)(F)F)cc2)c(NC2CCCCCC2)n1`, in the test on NCI/ADR-RES ovarian, the GI50 is 22.2 µM and the TGI came to 80.6 µM. Also, in the test with MCF7 breast, the GI50 was 11.4 µM and the TGI worked out at 24.9 µM.

Take `NC(=O)c1coc(C2OC(CO)C(O)C2O)n1` (stereo not drawn): the TGI with M19-MEL melanoma, with KM20L2 colon, in the test on SNB-78 CNS and in the test with LXFL 529 NSCLC was over 100 µM each time.
